Test results reported in US5422372A, “Method of increasing intracellular accumulation of hydrophilic anionic agents using gemfibrizol” (priority 1993, dated 1995).
In brackets after ≈: the same amount, converted by molar mass. Entries after “also recorded” stand apart in the source; their conditions may differ. Like-named read-outs stand apart in the source and are kept apart here.

Legend:
[1] = system: organic anion transporters of J774 cells; test: Lucifer Yellow secretion (efflux) from J774 cells; assay type: cell-based, mouse
Procedure: Cells were incubated in D10 containing 0.5 mg/ml Lucifer Yellow and 5 mM ATP with or without 10 mM penicillin G. The cells were then washed and incubated in fresh medium at 37° C. At intervals, the cells were viewed by fluorescence microscopy.

[2] = system: organic anion transporters of J774 cells; assay type: cell-based, mouse
[3] = system: Listeria monocytogenes in J774 cells; test: Intracellular growth of Listeria monocytogenes in J774 cells; assay type: cell-based
Procedure: J774 cells grown in spinner culture were centrifuged for 5 min. at 1000 RPM. The cells were resuspended in fresh DME+5% HICS without antibiotics at a concentration of 2×10^5. 5 ml of this cell suspension was plated into each 60 mm Petri dish containing multiple 12×1 mm round coverslips (Fisher Scientific Co.) the evening before use to allow the cells to form monolayers on the coverslips. The cells were incubated overnight at 37° C.
L. monocytogenes was incubated overnight in BHI broth to a density of approximately 10^9 /ml in a shaker at 37° C. 1 ml of the bacterial suspension was sedimented in a microfuge tube (USA/Scientific Plastics, Ocala, Fla.) for 1 min at 8000 RPM. The supernatant was removed and the pellet was washed once in 1 ml of PBS at pH 7.4. The bacteria were then resuspended in 1 ml fresh DME+5% HICS, diluted in DME+5% HICS to a concentration of 2×10^5 bacteria per ml, and 5 ml of this suspension (10^6 bacteria total) was placed in each 60 mm dish containing a monolayer of J774 cells (infection ratio 1:1). The dishes were incubated at 35° C. for 60 minutes. The coverslip was then transferred to a new 60 mm petri dish containing 10 ml of pre warmed DME+5% HICS and 5 μg/ml of gentamicin. The cells were incubated in the gentamicin containing medium for 1 hr. at 35° C. to kill extracellular bacteria, as described by Portnoy et al. (9), at which time additional drugs were added as indicated below. One 60 mm dish received no addition (control). Other 60 mm dishes received Gemfibrozil (GFZ) (0.2 mM), and/or Norfloxacin (NFX) at 2, 4 or 8 μg per ml, as indicated. Drugs were added either separately or in combination to make four independent sets: No addition, GFZ alone, NFX alone, or GFZ+NFX. The cultures were further incubated at 35° C. Three coverslips containing the Listeria-infected J774 cells were harvested from each culture dish at 2 hours after infection and at 2 hour intervals thereafter. The number of bacteria in the J774 cells on each cover slip was determined by depositing each coverslip into 5 ml of sterile distilled water in a 15 ml Falcon tube. The tubes were vortexed for 15 sec. to lyse the infected cells and 10 or 50 μL of each Listeria-containing solution was plated onto 10 cm dishes containing LB agar. The LB agar plates were incubated at 37° C. overnight, the bacterial colonies were counted, and the number of bacteria per cover slip was calculated from the number of colonies on the agar. Every data point represents the average of the number of bacterial colonies recovered from three coverslips.

[4] = system: organic anion transporters of J774 cells; test: Intracellular Lucifer Yellow accumulation during ATP permeabilization of J774 cells; assay type: cell-based, mouse; conditions: for effect on intracellular accumulation of Lucifer Yellow during ATP permeabilization: added together with 0.5 mg/ml Lucifer Yellow and 5 mM ATP
Procedure: The cells were incubated in phosphate buffered saline with divalent cations (PBS) containing 0.5 mg/ml Lucifer Yellow, 5 mM ATP and other compounds, at 37° C. as indicated in the text. The wells were washed with cold phosphate buffered saline without divalent cations (PD) 3 times, and plates were immersed successively in three beakers containing 1,000 ml cold PD. The first beaker also contained 0.1% bovine serum albumin. The cells then were lysed in 0.05% Triton X-100, and fluorescence was measured in a fluorescence spectrophotometer using an excitation wavelength of 430 nm and an emission wavelength 540 nm. Total cell protein was measured by a modification of the Lowery method. (6) Results were expressed as ng Lucifer Yellow/mg protein.
An assay to identify competitive inhibitors of the organic anion transporters that mediate the secretion of Lucifer Yellow was developed. It was reasoned that any substrate of the organic anion transporter small enough to enter the cells through ATP-induced pores, when added together with Lucifer Yellow during ATP permeabilization, would compete with Lucifer Yellow for efflux and cause higher intracellular accumulation of Lucifer Yellow. This assay was used to determine whether various substrates for other organic anion transporters competed with Lucifer Yellow for secretion by J774 cells.

[5] = system: organic anion transporters of J774 cells; conditions: cited from earlier work; for effect on intracellular sequestration and secretion of Lucifer Yellow: macrophages and J774 cells
L. monocytogenes [6] = test: Extracellular growth assay: minimum bacteriocidal concentration (MBC); assay type: cell-based; conditions: Listeria monocytogenes; brain-heart infusion broth; read-out: NFX concentration bacteriocidal for LM (MBC)
Procedure: 10 μl of the contents of each sample from the MIC assay described above was plated on 10 cm plates containing 20 ml. LB, agar, and the plates were incubated overnight at 25° C., 30° C. and 35° C. The number of colonies were counted.

L. monocytogenes [7] = test: Extracellular growth assay: minimum inhibitory concentration (MIC); assay type: cell-based; conditions: Listeria monocytogenes; brain-heart infusion broth; read-out: NFX concentration that blocked growth of LM (MIC)
Procedure: L. monocytogenes were inoculated into 1 ml of BHI broth and grown overnight in BHI broth to a density of approximately 10^9 bacteria per ml, diluted to a concentration of 2×10^3 bacteria per ml in Brain Heart Infusion Broth, and 0.5 ml aliquots of this suspension were placed in separate tubes. Norfloxacin (NFX) at the indicated concentrations in 0.5 ml BHI broth was added to the tubes containing L. monocytogenes, and the bacteria were incubated overnight at 25° C., 30° C. and 35° C. The MIC of NFX for L. monocytogenes was determined by visual inspection (tubes without antibiotic, in which the bacteria grew contained a cloudy suspension).

[8] = system: organic anion transporters of J774 cells; assay type: cell-based, mouse; conditions: for intracellular accumulation of radiolabel from [3H] norfloxacin: J774 cells incubated with [3H] norfloxacin and the inhibitor
Procedure: [^3 H]-Norfloxacin Retention in J774 Cells: J774 cells were prepared as above. The cells were incubated in PBS with 1.5 μCi/ml [^3 H] norfloxacin in the presence or absence of 10 mM probenecid for various lengths of time, washed and lysed. Cell-associated radioactivity and protein were quantitated as above.

[9] = system: organic anion transporters of J774 cells
J774 cells = test: Uptake of [14C] penicillin G by adherent J774 cells from extracellular medium; assay type: cell-based, mouse; conditions: even in the presence of 10 mM probenecid
Procedure: It was then questioned whether penicillin G was taken up by J774 cells from the extracellular medium, and whether this uptake was affected by organic anion transporters. In these experiments, adherent J774 cells were incubated in medium containing [^14 C] penicillin G, the cells were washed, and intracellular radiolabel was measured.

Toxicity to J774 cells = assay type: cell-based; conditions: mouse, read-out: concentrations toxic to the cells

With Cc1ccc(C)c(OCCCC(C)(C)C(=O)O)c1 [GFZ, 5-(2,5-dimethylphenoxy)-2,2-dimethylpentanoic acid] the “concentration inhibiting Lucifer Yellow secretion relative to PB” value [1] was “ten-fold lower concentration than PB”, the “enhancement of intracellular accumulation of NFX” value ([2]; 0.2 mM GFZ) was “four-fold” and the EC50 ([2]; J774 cells, read-out: ED50 for enhancing intracellular accumulation of [3H]NFX) was 15 µM. The “ED50 lower than the ED50 of PB or sulfinpyrazone” value ([2]; [3H]NFX accumulation by J774 cells) was 30 fold and the “intracellular growth of LM in J774 cells” value ([3]; 0.2 mM GFZ alone) was “has no effect on the rate or extent of growth; also recorded: does not inhibit growth”.

For O=C(O)[C@H](O)[C@@H](O)[C@H](O)[C@H](O)CO [Gluconic acid], the “effect on intracellular accumulation of Lucifer Yellow during ATP permeabilization” value (“effect on intracellular accumulation” below) [4] was “had no effect” and the “effect on intracellular norfloxacin concentration” value ([2]; 10 mM gluconic acid compared with norfloxacin only in PBS) was “did not affect”.

For NNC(=O)NN1C(=O)c2cc(S(=O)(=O)O)cc3c(N)c(S(=O)(=O)O)cc(c23)C1=O [Lucifer Yellow], the “dye secreted by the cells into the medium” value ([5]; within 30 minutes after ATP-mediated permeabilization) is listed as 80-85%.

With CCn1cc(C(=O)O)c(=O)c2cc(F)c(N3CCNCC3)cc21 [NFX, Norfloxacin] the MBC (L. monocytogenes [6]) was 8 µg/mL (≈ 25.1 µM), the MIC (L. monocytogenes [7]) was 4 µg/mL (≈ 12.5 µM) and the “time at which intracellular norfloxacin concentration reached plateau” value [8] was ≤ 10 min. For the same compound, the “intracellular growth of LM in J774 cells” value ([3]; 2 μg/ml NFX alone) was “little inhibitory effect; also recorded: slowed intracellular growth”, the “intracellular growth of LM in J774 cells” value ([3]; 4 μg/ml NFX alone) was “marked inhibition of intracellular growth; also recorded: bacteriostatic” and the “intracellular growth of LM in J774 cells” value ([3]; 8 μg/ml NFX alone) was “bacteriostatic effect”.

In the case of CC1(C)S[C@@H]2[C@H](NC(=O)Cc3ccccc3)C(=O)N2[C@H]1C(=O)O [penicillin G], the “effect on intracellular accumulation” value [4] is reported as “increase Lucifer Yellow retention in a dose-dependent manner”, the “rate of Lucifer Yellow efflux after co-loading by ATP permeabilization” value ([1]; 10 mM penicillin G, fluorescence microscopy) is reported as “reduced the rate of Lucifer Yellow afflux” and the “penicillin originally inside the cells secreted into the medium” value [9] is reported as “about 80%”. The “intracellular radiolabel after incubation with [14C] penicillin G without ATP permeabilization” value (J774 cells) was “could not be readily detected” and the “accumulation of [3H] norfloxacin in preloaded cells” value ([2]; preloaded with 10 mM by ATP-permeabilization, compared with 10 mM gluconic acid preload) was “significant increase”.

For CCCN(CCC)S(=O)(=O)c1ccc(C(=O)O)cc1 [probenecid, Probenecid], the “increase of intracellular retention of Lucifer Yellow” value ([4]; 5-10 mM probenecid in medium with Lucifer Yellow and ATP) is listed as 2.5 fold, the “concentrations that block secretion of Lucifer Yellow, penicillin and Norfloxacin” value [1] is listed as 2 to 5 mM and the “effect on intracellular sequestration and secretion of Lucifer Yellow” value [5] is listed as “inhibit both intracellular sequestration and secretion of Lucifer Yellow”. The “intracellular penicillin secreted from the cells” value ([9]; after 30 minutes, in the presence of 10 mM probenecid) was 37%, the “intracellular accumulation of radiolabel from [3H] norfloxacin” value [8] was “marked increase” and the “time at which intracellular norfloxacin concentration reached plateau” value ([8]; in the presence of 10 mM probenecid) was 30 min. The “enhancement of intracellular accumulation of norfloxacin” value ([8]; j774 cells, 10000 µM) was 3-4 fold, the “reversibility of the effect on norfloxacin retention” value ([2]; 10 mM probenecid 30 minutes, then washed) was “reversible” and the EC50 ([2]; 30 minutes, J774 cells, read-out: ED50 for enhancing intracellular retention of norfloxacin) was 500 µM. The “[3H] norfloxacin remaining in cells after probenecid removal relative to cells never incubated in probenecid” value ([2]; steady state after removal of 10 mM probenecid) was “twice”.

In the case of NC(=O)c1cnccn1 [pyrazinamide], the “effect on intracellular accumulation” value [4] is reported as “had no effect”.

For O=C1C(CC[S+]([O-])c2ccccc2)C(=O)N(c2ccccc2)N1c1ccccc1 (centres unmarked) [sulfinpyrazone], the MCC (Toxicity to J774 cells) is listed as > 2.5 mM, the “concentrations that block secretion of Lucifer Yellow, penicillin and Norfloxacin” value [1] is listed as 2 to 5 mM and the “effect on intracellular sequestration and secretion of Lucifer Yellow” value [5] is listed as “inhibit both intracellular sequestration and secretion of Lucifer Yellow”. For the same compound, the “intracellular accumulation of radiolabel from [3H] norfloxacin” value [8] was “marked increase” and the “ED50 for enhancing intracellular retention of norfloxacin (in words)” value ([2]; 30 minutes, J774 cells) was “essentially the same as that for probenecid”.
